Assay results taken from patent US20150218213A1, “INHIBITORS OF ALPHA6 INTEGRIN/E-CADHERIN COMPLEX” (Università degli Studi di Torino, priority 2012, published 2015).

Tests used:
[1] = tested on: β4 integrin subunit; assay: Affinity purification of liver metastasis lysates on column-immobilized peptide, ELISA and phage binding of fractions; details: lysates of human liver metastases, in comparison with the controls; FIG. 8
Procedure: (FIG. 8A, FIG. 8B) Isolation of […]- (SEQ ID NO: 14) targeted integrin partners. To identify the molecular partner of α6 integrin in the peptide-targeted complex, synthetic […] (SEQ ID NO. 14) was immobilized on column-packed diaminodipropylamine-agarose and successively loaded with 30 mg of total protein from 7 pooled liver metastases secondary to CRCs. Protein fractions were collected after sequential incubation with high salt buffer (for the elution of unspecific proteins), CARAC-peptide (SEQ ID NO. 43) (as a negative control) and […]-peptide (SEQ ID NO. 14) (target elution). Protein amounts in collected fractions were followed by reading their OD at 280 nm (FIG. 8A). […] Control (salt, control peptide) and targeted ([…]—1, —2, and —6) (SEQ ID NO. 14) protein fractions (500 ng each) were evaluated for the presence of specific integrin subunits by an ELISA assay (FIG. 8D).
For the characterization of proteins targeted by […] […] Protein amounts in collected fractions were followed by reading their OD at 280 nm, and selected fractions were concentrated by the use of Microcon centrifugal filter devices with cut-off 10,000 (Millipore) to remove residual synthetic peptides. Proteins were quantified with the Coomassie (Bradford) Protein Assay Kit (Pierce), and 500 ng of each sample was evaluated for the presence of specific integrin subunits with a standard ELISA assay. […]

[2] = tested on: U293 cells stably overexpressing E-cadherin, α6 integrin or both; assay: Cell proliferation assay (crystal violet); assay type: cell-based, human; details: 100 μM peptide, complete (10% FCS) medium; FIG. 12
Procedure: U293 cells stably overexpressing E-cadherin, α6 integrin or both were grown in complete (10% FCS) culture medium in the presence of either the control or […] (SEQ ID NO: 14) peptide. At 24 hour time points, cells were fixed and stained with crystal violet; their numbers were estimated by spectrophotometric evaluation. Results are shown as mean±standard deviation for each experimental point in 2 independent experiments.
To test the effects of peptides on cell proliferation, we seeded 2×10^4 cells per well in a 24-well plate, in the presence of either control or […] (SEQ ID NO: 14) peptide (100 μM). At the indicated time points, cells were fixed in glutaraldehyde, stained in crystal violet, and solubilized in 10% acetic acid. Cell growth was evaluated by absorbance at 590 nm in a microplate reader (Perkin Elmerm Waltham, Mass.). A calibration curve was set up with known numbers of cells and a linear correlation between absorbance and cell counts was established up to 5×10^5 cells/well.

[3] = tested on: primary CRC cell lines; assay: Liver adhesion assay on frozen sections of grossly normal human liver; assay type: cell-based
Procedure: (§1) (FIG. 10A, […]) The receptor side: α6 integrin and E-cadherin are involved in the adhesion of metastatic CRC cells to the liver. HepG2 and NCI-H630 cells were incubated on 10-μm frozen sections of grossly normal human liver and adhered cells were fixed, stained and counted under a light microscope at 20× magnification. Photomicrographs representative of cell numbers (120 minutes' incubation) and morphology (5 days' incubation) are shown. The dotted line indicates a micrometastasis-like structure integrated into the hepatic tissue; arrowheads point to cell aggregates. Tissues were counterstained with hematoxylin (FIG. 10A). NCI-H630 cells silenced for ITGA6, CDH1 or both of these mRNAs were challenged in the same assay (FIG. 10B). Results are shown as mean±standard deviation for each experimental point in 3 independent experiments. (FIG. 10C) The ligand side: the […] (SEQ ID NO: 14) motif and angiopoietin-like 6 interact specifically with cells expressing the receptor proteins. Phage binding was investigated on NCI-H630 cells in which ITGA6, CDH1 or both mRNAs were silenced. Results, normalized to fd-tet binding, are shown as mean±standard deviation of 4 independent experiments. The same cells were evaluated for their capacity to adhere to the […] […] After 48 hours, cells on the lower side of the transwell membranes were fixed, stained and counted under a light microscope at 5× magnification. […] (SEQ ID NO: 14) or control peptide; after 30 minutes, adhered cells were fixed, stained and counted under a light microscope at 5× magnification. For NCI-H630, adhesion was evaluated on liver sections from 27 patients (Patient Ids: P29, P30, P33, P34, P35, P36, P56-76) and results are shown as the ratio of attached cells in the presence of […] […] In FIG. 10A-D, FIG. 10F and FIG. 10G, differences in the experimental points were evaluated for their statistical significance by the use of ANOVA followed by Bonferroni's post-test. […] Fourteen days after surgery, animals were sacrificed and livers were explanted and photographed for the quantification of external tumor areas. […]

[4] = tested on: NCI-H630 cells; assay: as above; assay type: cell-based; details: liver sections from 27 patients, versus control peptide, 30 minutes
Procedure: as §1

[5] = tested on: LS-174T cells; assay: Hepatic colonization model, intrahepatic injection of CRC cells with soluble peptide; assay type: in vivo, CD-1 nude mice; details: LS-174T intrahepatic, 14 days
Procedure: (§2) (FIG. 10A, […]) The receptor side: α6 integrin and E-cadherin are involved in the adhesion of metastatic CRC cells to the liver. HepG2 and NCI-H630 cells were incubated on 10-μm frozen sections of grossly normal human liver and adhered cells were fixed, stained and counted under a light microscope at 20× magnification. Photomicrographs representative of cell numbers (120 minutes' incubation) and morphology (5 days' incubation) are shown. The dotted line indicates a micrometastasis-like structure integrated into the hepatic tissue; arrowheads point to cell aggregates. Tissues were counterstained with hematoxylin (FIG. 10A). […] The same cells were evaluated for their capacity to adhere to the […] […] After 48 hours, cells on the lower side of the transwell membranes were fixed, stained and counted under a light microscope at 5× magnification. […] (SEQ ID NO: 14) or control peptide; after 30 minutes, adhered cells were fixed, stained and counted under a light microscope at 5× magnification. For NCI-H630, adhesion was evaluated on liver sections from 27 patients (Patient Ids: P29, P30, P33, P34, P35, P36, P56-76) and results are shown as the ratio of attached cells in the presence of […] […] In FIG. 10A-D, FIG. 10F and FIG. 10G, differences in the experimental points were evaluated for their statistical significance by the use of ANOVA followed by Bonferroni's post-test. […]

[6] = tested on: HCCM-1544 tumor and CRC cell lines (HCT-116m, SW-48, DLD-1, LS-174T); assay: Liver homing model, intrasplenic implantation of CRC cells with soluble peptide; assay type: in vivo, CD-1 nude mice; details: 100 μM peptide co-injected, significant in all models except DLD-1
Excerpt: To obtain an in vivo model of metastatic CRC, we implanted the patient-derived HCCM-1544 tumor as well as different CRC cell lines (HCT-116m, SW-48, DLD-1 and LS-174T) intrasplenically into CD-1 nude mice (2×10^6/mouse). To evaluate the effect of […] (SEQ ID NO: 14) on liver metastasis, we injected cells either in medium alone (vehicle) or in the presence of the soluble peptide ([…]) (SEQ ID NO: 14). At the indicated time points, mice were euthanized and their livers and spleens were explanted. Livers were photographed for the quantification of external metastatic areas. Representative pictures of whole livers from 2 mice/group are shown for macroscopic evaluation of tumor morphology; the indicated p-values are referred to statistical analysis performed either with Fisher's exact test (in black) or t-test (in red). Spleen (primary tumor) and liver (metastasis) samples were OCT-frozen, cut in 10-μm sections and immunostained with anti-α6 integrin and anti-E-cadherin antibodies, followed by imaging with a confocal microscope. […]
Six-week female CD1-nude mice were purchased from Charles River (Lecco, Italy). […] Mice were strictly monitored until completely awake, and oral ampicillin was administered for 5 days following the surgery. […] External metastatic areas were quantified using ImageJ software.

[7] = tested on: NCI-H630 cells in which ITGA6, CDH1 or both mRNAs were silenced; assay: Cell adhesion to microwells coated with peptides and proteins; assay type: cell-based, human
Procedure: as §2

[8] = tested on: U293 cells stably transduced with α6 integrin, E-cadherin or both; assay: Transwell migration toward an angiopoietin-like 6 gradient; assay type: cell-based, human; details: 48 hours
Procedure: as §2

## CGIYRLRSC (Peptide inhibiting the E-cadherin/alpha6 integrin complex) [Targeting synthetic LRS-motif peptide, from New England Peptides]
[1]
  integrin subunit content of peptide- and phage-targeted protein fractions: substantial enrichment in the β4 subunit
[2]
  cell proliferation: no effects
[3]; HCT-116m, HT-29, SW-48 and DLD-1
  adhesiveness on hepatic tissues: significantly inhibited
[3]; non-metastatic HCT-116 cells
  adhesion to normal hepatic tissues: not influenced
[4]
  cell adhesion to human liver sections: significant decrease in cell adhesion
[5]; 100 μM peptide co-injected
  liver tumors (external tumor areas): significant reduction of liver tumors
[5]
  overall morphology and levels of receptor complex in the tumors: unchanged
[6]
  homing of CRC cells to the liver (liver metastases): diminished homing of CRC cells to the liver
[7]; NCI-H630 with ITGA6 or both mRNAs silenced, most pronounced with both downmodulated
  cell adherence to microwells coated with peptide: impaired adherence

B1: angiopoietin-like 6: secreted factor; recombinant protein from Alexis Biochemicals, or produced by transduced U293 cells (protein)
chain: RAGAPRCTYTFVLPPQKFTGAVCWSGPASTRATPEAANASELAALRMRVGRHEELLRELQRLAAADGAVAGEVRALRKESRGLSARLGQLRAQLQHEAGPGAGPGADLGAEPAAALALLGERVLNASAEAQRAAARFHQLDVKFRELAQLVTQQSSLIARLERLCPGGAGGQQQVLPPPPLVPVVPVRLVGSTSDTSRMLDPAPEPQRDQTQRQQEPMASPMPAGHPAVPTKPVGPWQDCAEARQAGHEQSGVYELRVGRHVVSVWCEQQLEGGGWTVIQRRQDGSVNFFTTWQHYKAGFGRPDGEYWLGLEPVYQLTSRGDHELLVLLEDWGGRGARAHYDGFSLEPESDHYRLRLGQYHGDAGDSLSWHNDKPFSTVDRDRDSYSGNCALYQRGGWWYHACAHSNLNGVWHHGGHYRSRYQDGVYWAEFRGGAYSLRKAAMLIRPLKL
[8]; U293 cells expressing both α6 integrin and E-cadherin
  cell migration toward ligand gradient: significantly stimulated
[8]; U293 cells with either α6 integrin or E-cadherin
  cell migration toward ligand gradient: not influenced
[7]; NCI-H630 cells in which both mRNAs were silenced
  cell binding to microwells coated with recombinant protein: significantly lower binding
